Target: T1, cathepsin C (Mus musculus, UniProt P97821)
T1 construct: gene Ctsc
Assay: colorimetric enzyme inhibition with H-Gly-Phe-β-naphthylamide; Lineweaver-Burk kinetics and secondary plots (IC50 […]; Kis […])
Assay type: biochemical

T1 sequence (P97821 25-134): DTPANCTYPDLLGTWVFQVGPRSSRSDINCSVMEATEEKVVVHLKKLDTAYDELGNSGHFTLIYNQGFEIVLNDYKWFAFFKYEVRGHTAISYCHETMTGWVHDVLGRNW
T1 sequence (P97821 231-462): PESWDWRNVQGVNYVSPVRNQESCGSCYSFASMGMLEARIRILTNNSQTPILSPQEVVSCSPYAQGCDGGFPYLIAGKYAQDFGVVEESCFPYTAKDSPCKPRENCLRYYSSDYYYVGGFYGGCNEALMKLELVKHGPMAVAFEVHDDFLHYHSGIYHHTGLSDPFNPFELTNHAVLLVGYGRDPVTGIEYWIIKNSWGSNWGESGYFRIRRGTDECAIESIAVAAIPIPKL

Ki: 71.6 ± 10.2 µM
SMILES: CC(=O)NCCc1ccc2c(c1)O[C@H](c1ccc(O)c(O)c1)[C@@H](NC(C)=O)O2 [compound 1, (2R,3S)-2-(3′,4′-dihydroxyphenyl)-3-acetylamino-7-(N-acetyl-2″-aminoethyl)-1,4-benzodioxane]

Source: paper PMC8908036, “N-Acetyldopamine dimers from Oxya chinensis sinuosa attenuates lipopolysaccharides induced inflammation and inhibits cathepsin C activity” (Computational and Structural Biotechnology Journal, 2022)
